Drawing on patent publication US20250129069A1, “TRIAZOLO WRN INHIBITORS” (Nimbus Wadjet, Inc., priority 2023, published 2025), this text covers IC50 and EC50 for 15 compounds.

In assay [1] the target is human Werner helicase (WRN, amino acids 517-1235 with L1074F point mutation) (Homo sapiens (Human), UniProt Q14191, L1074F). The assay is described as follows: WRN (BV08) ADP-Glo assay. The assay is classed as biochemical. The note with it: human WRN (aa 517-1235, L1074F), read-out: ADP-Glo_hWRN_IC50. An outline of the steps: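 ADP-Glo luminescence read after 60 min, 25 °C reaction of 0.15 nM WRN (517-1235, L1074F, Sf9-expressed, tag removed) with 0.1 nM DNA duplex and 5 μM ATP, following 15 min compound preincubation; 20 mM Bicine pH 7.5, 1% DMSO. IC50 from 3- or 4-parameter fit of % inhibition.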
For orientation: ADP-Glo turns the ADP formed in a reaction into a luminescent signal.

Assay [2] has as its system p21 induction in HCT 116 cells. The assay is described as follows: p21 induction in cells (In-Cell Western, p21/GAPDH ratio). The assay is classed as cell-based. The note with it: 24 h compound incubation, read-out: p21_EC50. An outline of the steps:
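EC50 values come from nonlinear fits of percent activation, defined by the 800/700 nm p21-to-GAPDH ratio scaled between DMSO (low) and internal WRN inhibitor (high) controls. In-Cell Western read after 24 h compound exposure of HCT 116 cells at 37° C. Duplicate 11-point series, 2-fold steps, usually starting at 10 μM.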

Molecules are shown by their SMILES. Where two headings read alike, the source gives them in different places. A value given as a limit tells only on which side of the number the result lay.

Chain of human Werner helicase (WRN, amino acids 517-1235 with L1074F point mutation) (Q14191 other isoform, or with tags, fused parts or gaps L1074F (already in the parent)): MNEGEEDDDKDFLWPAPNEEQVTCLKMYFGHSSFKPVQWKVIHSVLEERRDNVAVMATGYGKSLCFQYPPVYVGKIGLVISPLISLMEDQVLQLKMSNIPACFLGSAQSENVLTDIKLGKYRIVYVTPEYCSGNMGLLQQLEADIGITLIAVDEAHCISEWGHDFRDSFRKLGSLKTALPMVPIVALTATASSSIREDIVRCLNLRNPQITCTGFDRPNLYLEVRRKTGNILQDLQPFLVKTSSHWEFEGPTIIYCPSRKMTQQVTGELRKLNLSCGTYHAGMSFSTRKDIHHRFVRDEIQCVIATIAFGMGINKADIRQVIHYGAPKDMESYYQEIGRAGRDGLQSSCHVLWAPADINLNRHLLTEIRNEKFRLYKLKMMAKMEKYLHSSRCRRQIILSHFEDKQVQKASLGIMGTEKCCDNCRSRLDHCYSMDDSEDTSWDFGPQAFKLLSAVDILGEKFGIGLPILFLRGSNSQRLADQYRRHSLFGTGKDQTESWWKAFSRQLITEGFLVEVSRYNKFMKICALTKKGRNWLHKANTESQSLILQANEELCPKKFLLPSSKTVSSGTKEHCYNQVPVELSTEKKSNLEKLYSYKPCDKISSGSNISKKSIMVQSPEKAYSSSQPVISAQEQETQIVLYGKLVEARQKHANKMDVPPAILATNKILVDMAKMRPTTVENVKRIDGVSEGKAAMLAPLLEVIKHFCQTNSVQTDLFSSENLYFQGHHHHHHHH

With `CCc1c(N2CCN(C(=O)c3ncnc(C)c3O)[C@H]3CC[C@@H]32)c(=O)c2nn(C3=CCOCC3)nc2n1CC(=O)NC12CC(C(C)C)(C1)C2` [Compound I-18, 2-(2-(3,6-dihydro-2H-pyran-4-yl)-5-ethyl-6-((1S,6S)-5-(5-hydroxy-6-methylpyrimidine-4-carbonyl)-2,5-diazabicyclo[4.2.0]octan-2-yl)-7-oxo-2,7-dihydro-4H-[1,2,3]triazolo[4,5-b]pyridin-4-yl)-N-(3-isopropylbicyclo[1.1.1]pentan-1-yl)acetamide], the IC50 in assay [1] was in the range of 5 to 50 nM. Besides, the EC50 in assay [2] (Homo sapiens) was at most 500 nM.
For `CCc1c(N2CCN(C(=O)c3ncnc(C)c3O)[C@H]3CC[C@@H]32)c(=O)c2nn(-c3ccnc(C)c3)nc2n1CC(=O)NC12CC(C3CC3)(C1)C2` [Compound I-19, N-(3-cyclopropylbicyclo[1.1.1]pentan-1-yl)-2-(5-ethyl-6-((1S,6S)-5-(5-hydroxy-6-methylpyrimidine-4-carbonyl)-2,5-diazabicyclo[4.2.0]octan-2-yl)-2-(2-methylpyridin-4-yl)-7-oxo-2,7-dihydro-4H-[1,2,3]triazolo[4,5-b]pyridin-4-yl)acetamide], in that order: 5 to 50 nM and at most 500 nM.
Consider `CCc1c(N2CCN(C(=O)c3ncnc(C)c3O)[C@H]3CC[C@@H]32)c(=O)c2nn(C3=CCOCC3)nc2n1CC(=O)Nc1ccc(C(F)(F)F)cc1Cl` [Compound I-20, N-(2-chloro-4-(trifluoromethyl)phenyl)-2-(2-(3,6-dihydro-2H-pyran-4-yl)-5-ethyl-6-((1S,6S)-5-(5-hydroxy-6-methylpyrimidine-4-carbonyl)-2,5-diazabicyclo[4.2.0]octan-2-yl)-7-oxo-2,7-dihydro-4H-[1,2,3]triazolo[4,5-b]pyridin-4-yl)acetamide], for which, in assay [1], the IC50 was at most 5 nM. In assay [2] (Homo sapiens), the EC50 was at most 500 nM.
`CCc1c(N2CCN(C(=O)c3ncnc(C)c3O)[C@H]3CC[C@@H]32)c(=O)c2nn(-c3ccnc(OC)c3)nc2n1CC(=O)NC1CC2(CCC2)C1` [Compound I-21, 2-(5-ethyl-6-((1S,6S)-5-(5-hydroxy-6-methylpyrimidine-4-carbonyl)-2,5-diazabicyclo[4.2.0]octan-2-yl)-2-(2-methoxypyridin-4-yl)-7-oxo-2,7-dihydro-4H-[1,2,3]triazolo[4,5-b]pyridin-4-yl)-N-(spiro[3.3]heptan-2-yl)acetamide]: the IC50 in assay [1] lay within 5 to 50 nM. Further, in assay [2] (Homo sapiens), the EC50 was at most 500 nM.
Regarding `CCc1c(N2CCN(C(=O)c3ncnc(C)c3O)[C@H]3CC[C@@H]32)c(=O)c2nn(-c3ccccn3)nc2n1CC(=O)NC12CC(C(C)C)(C1)C2` [Compound I-22, 2-(5-ethyl-6-((1S,6S)-5-(5-hydroxy-6-methylpyrimidine-4-carbonyl)-2,5-diazabicyclo[4.2.0]octan-2-yl)-7-oxo-2-(pyridin-2-yl)-2,7-dihydro-4H-[1,2,3]triazolo[4,5-b]pyridin-4-yl)-N-(3-isopropylbicyclo[1.1.1]pentan-1-yl)acetamide], in assay [1], the IC50 is 5 to 50 nM. In addition, the EC50 in assay [2] (Homo sapiens) is at most 500 nM.
For `CCc1c(N2CCN(C(=O)c3c(OC)ncc(C)c3O)[C@H]3CC[C@@H]32)c(=O)c2nn(C3=CCOCC3)nc2n1CC(=O)Nc1ccc(C(F)(F)F)cc1Cl` [Compound I-23, N-(2-chloro-4-(trifluoromethyl)phenyl)-2-(2-(3,6-dihydro-2H-pyran-4-yl)-5-ethyl-6-((1S,6S)-5-(4-hydroxy-2-methoxy-5-methylnicotinoyl)-2,5-diazabicyclo[4.2.0]octan-2-yl)-7-oxo-2,7-dihydro-4H-[1,2,3]triazolo[4,5-b]pyridin-4-yl)acetamide], in assay [1], the IC50 is at most 5 nM. Also, the EC50 in assay [2] (Homo sapiens) is at most 500 nM.
The matching figures for `CCc1c(N2CCN(C(=O)c3c(OC)ncc(C)c3O)[C@H]3CC[C@@H]32)c(=O)c2nn(C3=CCOCC3)nc2n1CC(=O)NC12CC(C(C)C)(C1)C2` [Compound I-24, 2-(2-(3,6-dihydro-2H-pyran-4-yl)-5-ethyl-6-((1S,6S)-5-(4-hydroxy-2-methoxy-5-methylnicotinoyl)-2,5-diazabicyclo[4.2.0]octan-2-yl)-7-oxo-2,7-dihydro-4H-[1,2,3]triazolo[4,5-b]pyridin-4-yl)-N-(3-isopropylbicyclo[1.1.1]pentan-1-yl)acetamide]: 5 to 50 nM and at most 500 nM.
For `CCc1c(N2CCN(C(=O)c3ncnc(C)c3O)[C@H]3CC[C@@H]32)c(=O)c2nn(-c3cnn(C4CC4)c3)nc2n1CC(=O)NC12CC(C(C)C)(C1)C2` [Compound I-25, 2-(2-(1-cyclopropyl-1H-pyrazol-4-yl)-5-ethyl-6-((1S,6S)-5-(5-hydroxy-6-methylpyrimidine-4-carbonyl)-2,5-diazabicyclo[4.2.0]octan-2-yl)-7-oxo-2,7-dihydro-4H-[1,2,3]triazolo[4,5-b]pyridin-4-yl)-N-(3-isopropylbicyclo[1.1.1]pentan-1-yl)acetamide], in that order: 5 to 50 nM and at most 500 nM.
The matching figures for `CCc1c(N2CCN(C(=O)c3ncnc(C)c3O)[C@H]3CC[C@@H]32)c(=O)c2nn(C3=CCOCC3)nc2n1CC(=O)NC12CC(C3CC3)(C1)C2` [Compound I-26, N-(3-cyclopropylbicyclo[1.1.1]pentan-1-yl)-2-(2-(3,6-dihydro-2H-pyran-4-yl)-5-ethyl-6-((1S,6S)-5-(5-hydroxy-6-methylpyrimidine-4-carbonyl)-2,5-diazabicyclo[4.2.0]octan-2-yl)-7-oxo-2,7-dihydro-4H-[1,2,3]triazolo[4,5-b]pyridin-4-yl)acetamide]: 5 to 50 nM and at most 500 nM.
Turning to `CCc1c(N2CCN(C(=O)c3ncnc(C)c3O)[C@H]3CC[C@@H]32)c(=O)c2nn(-c3ccnc(OC)c3)nc2n1CC(=O)NC12CC(C(C)(F)F)(C1)C2` [Compound I-27, N-(3-(1,1-difluoroethyl)bicyclo[1.1.1]pentan-1-yl)-2-(5-ethyl-6-((1S,6S)-5-(5-hydroxy-6-methylpyrimidine-4-carbonyl)-2,5-diazabicyclo[4.2.0]octan-2-yl)-2-(2-methoxypyridin-4-yl)-7-oxo-2,7-dihydro-4H-[1,2,3]triazolo[4,5-b]pyridin-4-yl)acetamide], the IC50 in assay [1] was in the range of 5 to 50 nM. For the same compound, in assay [2] (Homo sapiens), the EC50 was at most 500 nM.
The matching figures for `CCc1c(N2CCN(C(=O)c3ncnc(C)c3O)[C@H]3CC[C@@H]32)c(=O)c2nn(-c3ccnc(OC)c3)nc2n1CC(=O)NC12CC(C3CCC3)(C1)C2` [Compound I-28, N-(3-cyclobutylbicyclo[1.1.1]pentan-1-yl)-2-(5-ethyl-6-((1S,6S)-5-(5-hydroxy-6-methylpyrimidine-4-carbonyl)-2,5-diazabicyclo[4.2.0]octan-2-yl)-2-(2-methoxypyridin-4-yl)-7-oxo-2,7-dihydro-4H-[1,2,3]triazolo[4,5-b]pyridin-4-yl)acetamide]: at most 5 nM and at most 500 nM.
With `CCc1c(N2CCN(C(=O)c3ncnc(C)c3O)[C@H]3CC[C@@H]32)c(=O)c2nn(-c3ccnc(OC)c3)nc2n1CC(=O)NC12CC(OC(F)(F)F)(C1)C2` [Compound I-29, 2-(5-ethyl-6-((1S,6S)-5-(5-hydroxy-6-methylpyrimidine-4-carbonyl)-2,5-diazabicyclo[4.2.0]octan-2-yl)-2-(2-methoxypyridin-4-yl)-7-oxo-2,7-dihydro-4H-[1,2,3]triazolo[4,5-b]pyridin-4-yl)-N-(3-(trifluoromethoxy)bicyclo[1.1.1]pentan-1-yl)acetamide], the IC50 in assay [1] was in the range of 5 to 50 nM. For the same compound, the EC50 in assay [2] (Homo sapiens) was at most 500 nM.
In the case of `CCc1c(N2CCN(C(=O)c3ncnc(C)c3O)[C@H]3CC[C@@H]32)c(=O)c2nn(-c3ccnc(OC)c3)nc2n1CC(=O)NC12CC(C3CC3)(C1)C2` [Compound I-30, N-{3-cyclopropylbicyclo[1.1.1]pentan-1-yl}-2-{5-ethyl-6-[(1S,6S)-5-(5-hydroxy-6-methylpyrimidine-4-carbonyl)-2,5-diazabicyclo[4.2.0]octan-2-yl]-2-(2-methoxypyridin-4-yl)-7-oxo-2H,4H,7H-[1,2,3]triazolo[4,5-b]pyridin-4-yl}acetamide], the IC50 in assay [1] is 5 to 50 nM. Besides, the EC50 in assay [2] is at most 500 nM.
For `CCc1c(N2CCN(C(=O)c3ncnc(C)c3O)[C@H]3CC[C@@H]32)c(=O)c2nn(C3=CCOCC3)nc2n1CC(=O)NC12CC(C3CC3)(C1)C2` [Compound I-31, N-{3-cyclopropylbicyclo[1.1.1]pentan-1-yl}-2-[2-(3,6-dihydro-2H-pyran-4-yl)-5-ethyl-6-[(1S,6S)-5-(5-hydroxy-6-methylpyrimidine-4-carbonyl)-2,5-diazabicyclo[4.2.0]octan-2-yl]-7-oxo-2H,4H,7H-[1,2,3]triazolo[4,5-b]pyridin-4-yl]acetamide], in that order: 5 to 50 nM and at most 500 nM.
As to `CCc1c(N2CCN(C(=O)c3ncnc(C)c3O)[C@H]3CC[C@@H]32)c(=O)c2nn(C3CC3)nc2n1CC(=O)NC12CC(C3CC3)(C1)C2` [Compound I-32, 2-{2-cyclopropyl-5-ethyl-6-[(1S,6S)-5-(5-hydroxy-6-methylpyrimidine-4-carbonyl)-2,5-diazabicyclo[4.2.0]octan-2-yl]-7-oxo-2H,4H,7H-[1,2,3]triazolo[4,5-b]pyridin-4-yl}-N-{3-cyclopropylbicyclo[1.1.1]pentan-1-yl}acetamide], in assay [1], the IC50 was in the range of 5 to 50 nM. In assay [2] (Homo sapiens), the EC50 lay within 500 to 2000 nM.
